# Reference: US20040266811A1, “Methods for inducing regeneration, remyelination, and hypermyelination of nervous tissue” (priority 2002, published 2004)
# Several values for one entry are separate records, joined by “and”; a condition that tells them apart may be missing. Equal entries are not always repeated. Entries after “also recorded” stand apart in the source; their conditions may differ.
# Legend:
# [1] = tested on: purified sensory neurons from DRG; test: Neurite outgrowth in purified (neuron-enriched) sensory neuron cultures; format: cell-based, E18 C57B1/6 mice; settings: 1 μM GM-284, 6 days
# Procedure: To generate neuron-enriched DRG cultures, DRGs were isolated from embryonic (E18) C57B1/6 mice, and processed in dissection media containing Hank's CMF saline, with 0.05% collagenase and 0.25% trypsin, for 30 min at 37° C. Neurons were obtained by trituration of ganglia with fire-polished Pasteur pipettes of decreasing diameter. Thereafter, the cellular suspension was washed twice in Dulbecco's modified Eagle medium supplemented with 10% fetal calf serum and 2% glucose. Freshly triturated neurons were incubated in 10% FCS-DMEM supplemented with 5-fluorouracil (Sigma, F-0503) and uridine (Sigma, U3003) for 48 h to remove non-neuronal proliferating cells, in the presence of either 100 ng/ml NGF or 1 μM GM-284. After 48 h, cultures were continued with these agents, but without mitotic inhibitors, for an additional 6 days.
# DRG explants are complex tissues, containing both Schwann cells and neurons. Accordingly, it is possible that GM-284 acts to promote neurite outgrowth directly, by acting on neurons, or indirectly, by acting on adjacent Schwann cells, which then act to promote neuritogenesis. To differentiate these possibilities, sensory neurons from DRG were purified as described (Wood et al., Studies of the initiation of myelination by Schwann cells. Ann. NY Acad. Sci., 605:1-14, 1990), and contaminating Schwann cells were removed by treatment of the cultures with anti-mitotic drugs.
# [2] = tested on: crushed sciatic nerve; test: Sciatic nerve crush and regeneration (electron microscopy morphometry); format: in vivo, adult, outbred ICR mice
# Procedure: (A) The sciatic nerves of adult, outbred ICR mice were crushed, as previously described (Gondre et al., Accelerated nerve regeneration mediated by Schwann cells expressing a mutant form of the POU protein SCIP. J. Cell Biol., 141:493-501, 1998). Following the surgery, the animals were randomized into treatment groups of either GM-284 (10 mg/kg) or vehicle. At the end of 30 days, the animals were sacrificed, their sciatic nerves were prepared for electron microscopy, and subsequently evaluated for the extent of both axonal and myelin regeneration. All sampling was done at the same proximal-distal levels, and approximately 5 mm below the crush site. […] (B) Quantitative analysis of both axonal and myelin growth in response to GM-284 treatment was carried out by digitizing the images in (A), and determining the axonal and myelin volumes, calculated in voxels.
# Mice were anesthetized (i.p.) with 0.5 cc of 2.5% Avertin/saline, before perfusion via the left ventricle. The animals were perfused for 30 min at 37° C., with a rat Ringer's solution containing heparin (2.0 ml/L; stock=10,000 units/ml) and 2% lidocaine (3.0 ml/L), followed by perfusion for 7-10 min with 2% glutaraldehyde/1% paraformaldehyde in 0.15 M sodium cacodylate, pH 7.2. Approximately 1 cm of sciatic nerve was dissected from the hind leg (from the hip to the knee), and split into 3 sections (proximal, medial, and distal). A 2-mm length was taken from each of the three sections, then immersion fixed. The primary fixation was carried out for 2-4 h total, at 4° C., with 2% glutaraldehyde/1% paraformaldehyde in 0.15 M sodium cacodylate buffer, pH 7.2. Tissues were rinsed 6 times, for 20 min each, then rinsed overnight at 4° C. in 0.15 M sodium cacodylate buffer, pH 7.2.
# Secondary fixation was carried out for 4 h at 4° C. in 1% osmium-tetroxide/1.5% potassium-ferrocyanide in 0.15 M sodium cacodylate buffer, pH 7.2. Tissues were rinsed 3 times, for 10 min each, in Millipore-filtered water at 4° C., then stained en bloc in 2% uranyl acetate (aq) at 4° C. for 1 h. At this point, the tissues were dehydrated once for 8 min in a graded ethanol series starting with water, 30%, 50%, 70%, 95%, and then dehydrated twice, for 10 min each, in 100% ethanol and then in propylene oxide. After dehydration, the nerve tissue was infiltrated with propylene oxide/Durcupan (Fluka Chemika-BioChemika, Ronkonkoma, N.Y.), in a 25/75 ratio, for 60 min at room temperature. This was followed by infiltration three times, for 120 min each, in Durcupan resin at room temperature. Sciatic nerves were flat-embedded in fresh Durcupan resin, and polymerized for 24-36 h at 65° C. 1-μM-thick sections were stained with Toluidine blue. Silver sections were cut on a Diatome diamond knife, and stained with 2% uranyl acetate for 30 min at room temperature, and with Reynold's lead citrate for 7 min. Thin sections were viewed at 60 kv, and photographed on a JEOL 100 CX conventional transmission electron microscope.
# Deep anesthesia was obtained with i.p. injection of Avertin. Electrophysiology recordings were obtained, as previously described (Bieri et al., Abnormal nerve conduction studies in mice expressing a mutant form of the POU transcription factor SCIP. J. Neurosci. Res., 50:821-28, 1997). Immediately afterward, the right sciatic nerve of each animal was exposed and crushed 2 times, for 30 sec each, using a #5 Dumont forceps. In brief, the skin was prepped bilaterally prior to electrophysiologic testing. […]
# [3] = 10 mg/kg daily, one month after crush
smiles,measurement,setting,value
CCC(C)(C)C(=O)C(=O)N1CCC[C@H]1c1nnc([C@@H]2CCCN2C(=O)C(=O)C(C)(C)CC)o1 [GM-284],neurite outgrowth in purified neuronal cultures,[1],complete failure to elaborate processes; also recorded: failed to promote axonogenesis; also recorded: no neurite outgrowth
same,increase in myelin (volume in voxels),[2]; [3],~3 fold
same,increase in the size of myelinated axons,[2]; [3],3- to 4 fold and 4 fold
same,histology of regenerated sciatic nerve,"[2]; 10 mg/kg daily, one month after crush, electron microscopy","induced both axonal hypertrophy and a global over-elaboration of the myelin organelle; also recorded: enhanced axonal regeneration; also recorded: clear axonal hypertrophy, as well as hypermyelination; also recorded: hypermyelination and axonal hypertrophy"
same,ratio of axonal volume to myelin volume,"[2]; GM-284-treated group, NIH Image",0.2
same,"increase in myelin volume, relative to each axon","[2]; vs vehicle, p<0.0001",20 fold
